Molecular target: human recombinant DHODH (rhDHODH) (Homo sapiens, UniProt Q02127)
Test: Inhibition of the activity of rh DHODH on its colorimetric substrate (OD at 600 nm)
Type: biochemical
Description: This mother tincture constitutes the sample to be tested. The measurement of the inhibition of the action of DHODH on its substrate is carried out in a conventional multi-well plate with a transparent wall. The wells contain the samples to be tested, the DHODH and its substrate.
To evaluate the inhibition of the DHODH by the sample, the parameter of the optical density called “OD” is used. Indeed, in each well, the “OD” is measured at a wavelength of 600 nm, at several time intervals, for a duration of 5 min.
More specifically, each well comprises the diluted or non-diluted sample, the enzyme of the DHODH and its colorimetric substrate diluted in a test buffer. Said colorimetric substrate comprises DHO which can be converted into ORO by action of the DHODH.
Over time, the consumption of the colorimetric substrate DHO by the enzyme DHODH results in a reduction in the OD. This decrease indicates the conversion of the colored DHO into uncolored ORO by the activity of the DHODH. In other words, the DHO is consumed, […] to ORO by the activity of the DHODH, which causes a modification of the OD measured.
In the event of inhibition of the activity of the DHODH by the sample, the OD remains stable over time. Indeed, in the case of inhibition, the colorimetric DHO substrate will not be transformed by the DHODH into ORO, the OD therefore will remain that of the initial DHO.
To carry out the experiments, the following were used: • a solution of class 1 enzyme called “rhDHODH” for “human recombinant DHODH”, • a test buffer consisting of 50 mM Tris, 150 mM KCl and 0.1% Triton® X-100, at pH 8, • a substrate mixture of DHODH containing: 2 mM of L-dihydroorotic called “DHO”, 0.2 mM of decylubiquinone called “Q” and 0.12 mM of 2,6-Dichloroindophenol sodium salt hydrate called “DP IP” in the test buffer, • a mother tincture sample of a leaf extract of a Neurolaena lobata plant, diluted or not, in a dilution buffer consisting of dimethyl sulfoxide called “DMSO”.
To start the protocol, each dilution of the sample H1 or H2 was placed in the presence of the rh DHODH enzyme and the mixture of substrate within a well. In order to obtain an average of OD measured for a sample concentration H1 or H2, triplicates were carried out for each of the dilution concentrations of H1 and H2.
The amount of enzyme added in each well is the same. In the protocol, the enzyme is added to the well so as to have a concentration of 0.06 μg of rh DHODH enzyme/mL of total solution in the well.
% of activity=(ΔH1×100)/Δ of the negative control.
The % of inhibition is calculated by the following formula: 100—the value of the % of activity.

human recombinant DHODH (rhDHODH), sequence (Q02127 whole entry): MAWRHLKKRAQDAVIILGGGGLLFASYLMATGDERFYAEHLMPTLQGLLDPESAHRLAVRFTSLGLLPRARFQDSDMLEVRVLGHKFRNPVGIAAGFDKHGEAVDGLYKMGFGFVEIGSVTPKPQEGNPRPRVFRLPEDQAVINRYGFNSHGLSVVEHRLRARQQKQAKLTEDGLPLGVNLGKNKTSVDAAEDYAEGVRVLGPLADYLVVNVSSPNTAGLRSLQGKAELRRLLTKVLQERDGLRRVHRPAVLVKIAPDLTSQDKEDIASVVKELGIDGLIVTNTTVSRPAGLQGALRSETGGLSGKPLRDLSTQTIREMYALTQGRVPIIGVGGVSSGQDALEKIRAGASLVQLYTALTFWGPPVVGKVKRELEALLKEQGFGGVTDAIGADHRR

activity at 0.001 µg/mL: 6.25%
activity at 0.01 µg/mL: 7.21%
activity at 0.1 µg/mL: 0%
activity at 1 µg/mL: 0%
Δ (OD at 0 s minus OD at 275 s) (0.001 μg/mL): 0.013
inhibition at 0.001 µg/mL (0.001 μg/mL, 0-275 s): 93.8%
OD at 600 nm (0.001 μg/mL, 0 s): 0.339
OD at 600 nm (0.001 μg/mL, 55 s): 0.340
OD at 600 nm (0.001 μg/mL, 110 s): 0.333
OD at 600 nm (0.001 μg/mL, 165 s): 0.331
OD at 600 nm (0.001 μg/mL, 220 s): 0.328
OD at 600 nm (0.001 μg/mL, 275 s): 0.326
Δ (OD at 0 s minus OD at 275 s) (0.01 μg/mL): 0.015
inhibition at 0.01 µg/mL (0.01 μg/mL, 0-275 s): 92.8%
OD at 600 nm (0.01 μg/mL, 0 s): 0.344
OD at 600 nm (0.01 μg/mL, 55 s): 0.345
OD at 600 nm (0.01 μg/mL, 110 s): 0.339
OD at 600 nm (0.01 μg/mL, 165 s): 0.336
OD at 600 nm (0.01 μg/mL, 220 s): 0.348
OD at 600 nm (0.01 μg/mL, 275 s): 0.329
Δ (OD at 0 s minus OD at 275 s) (0.1 μg/mL): 0.000
inhibition at 0.1 µg/mL (0.1 μg/mL, 0-275 s): 100%
OD at 600 nm (0.1 μg/mL, 0 s): 0.349
OD at 600 nm (0.1 μg/mL, 55 s): 0.348
OD at 600 nm (0.1 μg/mL, 110 s): 0.353
OD at 600 nm (0.1 μg/mL, 165 s): 0.345
OD at 600 nm (0.1 μg/mL, 220 s): 0.350
OD at 600 nm (0.1 μg/mL, 275 s): 0.349
Δ (OD at 0 s minus OD at 275 s) (1 μg/mL): 0.001
inhibition at 1 µg/mL (1 μg/mL, 0-275 s): 100%
OD at 600 nm (1 μg/mL, 0 s): 0.354
OD at 600 nm (1 μg/mL, 55 s): 0.354
OD at 600 nm (1 μg/mL, 110 s): 0.352
OD at 600 nm (1 μg/mL, 165 s): 0.361
OD at 600 nm (1 μg/mL, 220 s): 0.357
OD at 600 nm (1 μg/mL, 275 s): 0.353
Compound: Cc1c(-c2ccc(-c3ccccc3F)cc2)nc2ccc(F)cc2c1C(=O)O [brequinar]
